Reference: paper PMC6367500, “18β-glycyrrhetyl-3-O-sulfate would be a causative agent of licorice-induced pseudoaldosteronism” (Scientific Reports, 2019)

Legend:
[1] = Concentrations of GL metabolites in plasma of a patient with pseudoaldosteronism (LC-MS/MS); type: in vivo, human; settings: for plasma concentration, day 0 / concentration at 0 day: patient with licorice-induced pseudoaldosteronism, day 0; for plasma concentration, day 5 / concentration at 5 day: 5 days after stopping the Kampo formula; for concentration at 0 day: female; for concentration at 13 day: day 13
Excerpt: The patient was a person who had taken a Kampo formula containing licorice for 3 years (1.5 g of licorice for 1 year and 2 months, and 3 g for 1 year and 10 months). On day 0, we found a low plasma potassium level (2.1 mEq/l) and a high creatinine kinase level (364 U/l). Since low plasma renin activity and a low aldosterone level were also found, the patient was diagnosed with pseudoaldosteronism due to licorice. The administration of the Kampo formula was stopped and potassium supplementation of up to 100 mEq/day was started. In the plasma collected on day 0, we detected compound 3 at 8.6 µM, GA at 1.3 µM, and 2 at 87 nM, while 1, GL and 3MGA were not detected. On day 5, the plasma potassium level was still 2.1 mEq/l and potassium supplementation was continued. However, the plasma concentrations of 3 and GA had decreased to 3.6 µM and 0.65 µM, respectively. 2, 1, GL, and 3MGA were not detected. On day 13, the plasma potassium level was increased to 2.8 mEq/l, and the concentrations of 3 and GA were 61 nM and 11 nM, respectively. On day 14, the plasma potassium level was 3.4 mEq/l, and the concentration of 3 was 57 nM; GA was not detected. On day 18, the plasma potassium level had recovered to a normal level (4.9 mEq/l), so potassium supplementation was stopped.
Female SD rats or EHBRs (9-week-old) were anesthetized by an intraperitoneal (i.p.) injection of urethane (1 g/kg) and their jugular veins were exposed. GA suspended in 0.5% CMC was then administered orally (200 mg/kg) to the unconscious rats, and blood samples were collected from the jugular vein; urine samples were collected using a metabolic cage at an appropriate time over a 12-h period. […] Feces were homogenized in phosphate-buffered saline (PBS; 0.15 M, pH 7.2), centrifuged (1.2 × 10^4 g, 10 min), and the supernatants were collected. After 1 week as a washout period, female SD rats were anesthetized by an i.p. injection of urethane (1 g/kg) and their biliary tract was cannulated. GA (0.2 mg/kg) was injected into the jugular vein, and the bile was collected every hour for 4 h. Aliquots (10 µl) of plasma, urine, homogenate of feces, or bile were mixed with 20 µl of subtilisin (0.91 U/ml) and incubated at 37 °C for 30 min, followed by the addition of 70 µl of astragaloside IV solution (1 µg/ml in ethanol containing 0.5% formic acid, used as internal standard), and kept at −20 °C for 30 min. […] The transitions (precursor to daughter) monitored and retention times were as follows: ESI(+) 743.4 to 567.5 m/z for compound 1 (5.5 min), ESI(−) 565.5 to 96.5 m/z for 2 (6.2 min), ESI(−) 549.5 to 96.5 m/z for 3 (8.1 min), ESI(+) 647.6 to 453.6 m/z for 3MGA (9.2 min), ESI(+) 471.3 to 91.0 m/z for GA (8.8 min), ESI(+) 823.5 to 453.6 m/z for GL (10.8 min), and ESI(+) 785.4 to 143.0 m/z for astragaloside IV (3.0 min). Linear regressions over the concentration range of 32 nM to 20 µM for each compound were examined using the peak-area ratio of the compounds to their internal standards and the least-squares method (r^2 > 0.98).
The patient was a person. They provided written informed consent to the use of their blood and urine samples for this study, which was approved by the Independent Ethics Committee of Kameda General Hospital, in accordance with the Declaration of Helsinki. Their anamnesis was follows: hypertension, systemic lupus erythematosus, and antiphospholipid antibody syndrome (for 15 years), necrotic pulmonary aspergillosis (6 years ago), cerebral infarction (14 and 4 years ago, two times), and stomach cancer (3 years ago). After the operation for stomach cancer, the patient had been treated with Kracie Juzentaihoto Extract Granules for Ethical Use (Kracie Pharmaceuticals., Tokyo, Japan). […]

[2] = system: anti-3MGA-mAb; assay: Competitive ELISA using anti-3MGA-mAb; type: binding; settings: specificity to 3MGA calibrated to 100%, n = 1
Protocol: Figure 5 Dot-blot analysis and ELISA detection range of GL metabolites using anti-3MGA-monoclonal antibody (mAb). GL metabolites (1 µg each) were spotted on a PES membrane, and colored using an anti-3MGA-mAb (A). Competitive ELISA using anti-3MGA-mAb for GL metabolites was performed. Data are represented from a single analysis (n = 1) (B). […] Data are represented as mean ± S.D. (n = 3). Two-way ANOVA indicated a significant difference between GA and 3 (F1,36 = 4441, P < 0.001), concentrations (F8,36 = 315, P < 0.001), and their interactions (F8,36 = 281, P < 0.001). The calibrated line for the absorbance-concentration profile of 3 was calculated by the linear least-squares method, and the regression formula is shown in graph (C).
When the specificity of the mAb to 3MGA was calibrated to 100%, the cross-reactivity for GL, GA, 1, 2, and 3 was 0.23%, 2.2%, 4.8%, 4.0%, and 23%, respectively. […] We confirmed the selectivity of the anti-3MGA-mAb in discriminating between 3 and GA and established the detectable measurement range for 3 in this ELISA system.
3MGA-HSA (1 µg/ml in 50 mM carbonate buffer, pH 9.6) was added into a 96-well plate (Nagel Nunc, Penfield, NY, USA) (100 µl in a well) and incubated at 37 °C for 1 h. After the removal of 3MGA-HSA, the wells were washed three times with T-PBS (200 µl in a well). The wells were incubated with 300 µl in a well of 5% skim milk at 4 °C overnight. After the wells had been washed with T-PBS three times, the sample solution diluted with Can Get Signal® Solution 1 (Toyobo Co., Ltd., Osaka, Japan) (50 µl in a well) and anti-3MGA-mAb (1:4,000 dilution with Can Get Signal® Solution 1) (50 µl in a well) were added to the wells, and the plate was incubated at 37 °C for 1 h. After the wells had been washed with T-PBS three times, HRP-labeled goat anti-mouse IgG (Fc specific) antibody (Sigma, 1:20,000 dilution with Can Get Signal® Solution 2) was added into the wells (100 µl in a well) and the plate was incubated at 37 °C for 1 h. Next, the wells were washed with T-PBS three times and the substrate solution (3,3′,5,5′-tetramethylbensidine, TMB solution; Fujifilm Wako Pure Chemical Corporation, Osaka, Japan) was added to the wells (100 µl in a well), followed by incubation at room temperature for 5 min. Then, the stop solution (0.5 M sulfuric acid) was added to the wells (100 µl in a well) and the optical density was measured at 450 nm/630 nm.

Structure (SMILES)	plasma concentration (below detection limit) ([1]; patient plasma sample, LC-MS/MS detection limit)	plasma concentration, day 0 [1]	plasma concentration, day 5 ([1]; patient)	cross-reactivity of anti-3MGA-mAb [2] [%]	concentration at 0 day ([1]; human, plasma, oral) [nM]	concentration at 5 day ([1]; human, plasma, oral, patient) [nM]	concentration at 13 day ([1]; human, plasma, oral, patient) [nM]	plasma concentration, day 14 ([1]; patient, day 14)	concentration at 14 day ([1]; human, plasma, oral, patient, day 14) [nM]	plasma concentration, day 18 ([1]; patient, day 18)
CC1(C)[C@@H](O[C@@H]2O[C@H](C(=O)O)[C@@H](O)[C@H](O)[C@H]2O)CC[C@]2(C)[C@H]3C(=O)C=C4[C@@H]5C[C@@](C)(C(=O)O)CC[C@]5(C)CC[C@@]4(C)[C@]3(C)CC[C@@H]12 [3MGA, 3-monoglucuronyl glycyrrhetinic acid, reference compound]	less than 3.2 nM	not detected	not detected	100						
CC1(C)[C@@H](O)CC[C@]2(C)[C@H]3C(=O)C=C4[C@@H]5C[C@@](C)(C(=O)O)CC[C@]5(C)CC[C@@]4(C)[C@]3(C)CC[C@@H]12 [GA, glycyrrhetinic acid, reference compound]				2.2	1300	650	11	not detected		
CC1(C)[C@@H](OS(=O)(=O)O)CC[C@]2(C)[C@H]3C(=O)C=C4[C@@H]5C[C@@](C)(C(=O)O[C@@H]6O[C@H](C(=O)O)[C@@H](O)[C@H](O)[C@H]6O)C[C@H](O)[C@]5(C)CC[C@@]4(C)[C@]3(C)CC[C@@H]12 [compound 1, 22α-hydroxy-18β-glycyrrhetyl-3-O-sulfate-30-glucuronide]		not detected	not detected	4.8						
CC1(C)[C@@H](OS(=O)(=O)O)CC[C@]2(C)[C@H]3C(=O)C=C4[C@@H]5C[C@@](C)(C(=O)O)C[C@H](O)[C@]5(C)CC[C@@]4(C)[C@]3(C)CC[C@@H]12 [compound 2, 22α-hydroxy-18β-glycyrrhetyl-3-O-sulfate]			not detected	4.0	87					
CC1(C)[C@@H](OS(=O)(=O)O)CC[C@]2(C)[C@H]3C(=O)C=C4[C@@H]5C[C@@](C)(C(=O)O)CC[C@]5(C)CC[C@@]4(C)[C@]3(C)CC[C@@H]12 [compound 3, 18β-glycyrrhetyl-3-O-sulfate]				23	8600	3600	61		57	below the detectable limit
